Reference: PMC7413254 (Nature Communications, 2020)
Where “and” joins values, the source holds several entries; their conditions need not be identical. Equal entries are not always repeated. Where two headings read alike, the source gives them in different places.

Experiments:
[1] = molecular target: T1, PfCRT^3D7 (Plasmodium falciparum, UniProt Q8IBZ9); assay: cell-based; format: cell-based; settings: for Trans-stimulation data: total [3H]CQ transport: normalised to the oocyte type control (control = 100); for Trans-stimulation: total [3H]CQ transport, PfCRT3D7 oocytes: mean ± SEM, SEM
T1 sequence (Q8IBZ9 59-398): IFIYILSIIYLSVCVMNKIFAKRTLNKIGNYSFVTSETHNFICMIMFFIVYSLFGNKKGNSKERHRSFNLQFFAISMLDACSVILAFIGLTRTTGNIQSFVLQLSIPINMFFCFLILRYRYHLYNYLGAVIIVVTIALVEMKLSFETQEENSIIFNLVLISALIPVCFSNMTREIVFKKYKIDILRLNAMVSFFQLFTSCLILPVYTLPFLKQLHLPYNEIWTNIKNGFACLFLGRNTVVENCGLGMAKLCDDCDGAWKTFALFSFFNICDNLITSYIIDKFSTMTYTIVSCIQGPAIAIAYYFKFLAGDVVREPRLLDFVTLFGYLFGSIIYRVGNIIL
Outline: (§1)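 Transport measured in Xenopus oocytes expressing the transporters, 1.5 h at 27.5 °C in ND96 pH 5.5 unless noted. For trans-stimulation, VF-6 injected in 25 nL ND96 at pH 5.0–7.0 or Na^+-free (choline) buffer; intracellular levels based on ~400 nL oocyte volume. Ten oocytes per treatment, ≥4 experiments.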

[2] = molecular target: T2, PfNT1 (Plasmodium falciparum, UniProt Q8IDM6); assay: cell-based; format: cell-based; settings: for Trans-stimulation data: total [3H]CQ transport: normalised to the oocyte type control (control = 100); for Trans-stimulation: total [3H]CQ transport, PfNT1 oocytes: mean ± SEM, SEM
T2 construct: expressed in transfected cells; host or cells: Xenopus laevis oocytes (stage V-VI), cRNA-injected
T2 sequence (Q8IDM6 whole entry): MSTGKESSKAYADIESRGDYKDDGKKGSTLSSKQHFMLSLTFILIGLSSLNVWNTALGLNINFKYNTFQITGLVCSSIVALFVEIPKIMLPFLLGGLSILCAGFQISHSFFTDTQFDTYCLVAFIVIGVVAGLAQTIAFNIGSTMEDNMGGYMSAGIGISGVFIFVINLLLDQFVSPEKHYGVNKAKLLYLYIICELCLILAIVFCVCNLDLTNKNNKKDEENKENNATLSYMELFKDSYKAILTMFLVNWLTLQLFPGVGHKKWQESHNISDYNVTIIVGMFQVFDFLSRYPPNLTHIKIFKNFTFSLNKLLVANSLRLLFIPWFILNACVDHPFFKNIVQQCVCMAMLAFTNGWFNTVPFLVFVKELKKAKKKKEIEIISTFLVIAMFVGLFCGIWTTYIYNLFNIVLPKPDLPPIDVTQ
Outline: as §1

[3] = system: non-expressing oocytes; format: cell-based, Xenopus laevis; settings: for Trans-stimulation: total [3H]CQ transport, non-expressing oocytes: mean ± SEM, SEM; for Trans-stimulation data: total [3H]CQ transport: normalised to the oocyte type control (control = 100)
Description: (§2) Unless specified otherwise, the transport assays were conducted over 1.5 h at 27.5 °C and the reaction buffer was ND96 (96 mM NaCl, 2 mM KCl, 1 mM MgCl2, 1.8 mM CaCl2, 10 mM MES and 10 mM Tris-base) at pH 5.5.
The intracellular concentrations were calculated using previous estimates of the volume of stage V–VI oocytes (~400 nL[60]). […] The oocytes were injected with VF-6 suspended in 25 nL ND96 buffer adjusted to pH 5.0, 5.5, 6.0 or 7.0, which corresponded to the injection of 2.5–250 fmol of H^+. The Na^+-dependence of the trans-stimulatory effect of VF-6 was assessed by injecting the oocytes with VF-6 suspended in ND96 buffer (pH 5.5) or a Na^+-free version of this buffer (the Na^+ was replaced with choline).
(§3) At least four independent experiments were performed (on different days and using oocytes from different frogs), and within each experiment measurements were made from ten oocytes per treatment.

[4] = molecular target: T1, PfCRT^3D7; assay: cell-based; format: cell-based
Description: (§4) The orientation of PfCRT in the parasite’s DV membrane, and also in the oocyte plasma membrane, is such that its N- and C-termini extend into the cytosol. The oocytes were suspended in a reaction buffer adjusted to pH 5.5 to mimic the pH of the DV lumen[1],[2]. In this scenario, the transport of a substrate via PfCRT from the acidic extracellular solution into the oocyte cytosol[15] is analogous to the parasite’s PfCRT-mediated efflux of a substrate from the acidic DV and into the cytosol. Unless specified otherwise, this is the direction in which substrate transport was measured in the oocyte assays.
as §2
(§5) Ten oocytes were washed twice with the relevant ND96 buffer. […] The assay was terminated by removing the reaction buffer and washing the oocytes with ice-cold ND96 buffer. The oocytes were lysed in 10% (w/v) sodium dodecyl sulfate (SDS) and the radioactivity accumulated within each oocyte was measured with a MicroBeta^2 microplate liquid scintillation analyser (PerkinElmer).
as §3

[5] = system: non-expressing oocytes; assay: cells; format: cell-based, Xenopus laevis
Description: as §4, §2, §5, §3

[6] = molecular target: T3, PfCRT^Ecu1110 (Plasmodium falciparum, UniProt Q9N623, A220S/I356L/K76T/N326D); assay: cell-based; format: cell-based; settings: for Trans-stimulation data: total [3H]CQ transport: normalised to the oocyte type control (control = 100); for Trans-stimulation: total [3H]CQ transport, PfCRTEcu1110 oocytes: mean ± SEM, SEM; for Trans-stimulation data: PfCRT-mediated [3H]CQ transport: footnote b: due to solubility the highest intracellular concentration tested was 30 mM, normalised to the oocyte type control = 100
T3 sequence (Q9N623 whole entry A220S/I356L/K76T/N326D): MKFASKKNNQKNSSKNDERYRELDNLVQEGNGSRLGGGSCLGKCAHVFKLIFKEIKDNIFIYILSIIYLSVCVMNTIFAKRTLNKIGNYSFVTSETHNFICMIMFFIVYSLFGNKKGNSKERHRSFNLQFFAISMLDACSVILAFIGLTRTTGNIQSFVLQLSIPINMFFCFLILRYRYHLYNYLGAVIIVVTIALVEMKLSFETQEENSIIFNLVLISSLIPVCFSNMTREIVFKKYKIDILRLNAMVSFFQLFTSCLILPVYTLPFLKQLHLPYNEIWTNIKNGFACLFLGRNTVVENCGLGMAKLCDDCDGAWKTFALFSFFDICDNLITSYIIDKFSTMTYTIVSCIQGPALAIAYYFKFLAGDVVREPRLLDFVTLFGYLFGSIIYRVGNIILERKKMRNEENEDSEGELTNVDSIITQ
Outline: as §1

[7] = molecular target: T4, PfCRT^Dd2 (Plasmodium falciparum, UniProt Q9N623, A220S/I356T/K76T/M74I/N326S/N75E/Q271E/R371I); assay: cell-based; format: cell-based; settings: for Trans-stimulation data: total [3H]CQ transport: normalised to the oocyte type control (control = 100); for PfCRT-mediated [3H]CQ transport, trans-stimulation by injected solute, PfCRTDd2 / Trans-stimulation data: PfCRT-mediated [3H]CQ transport: footnote b: due to solubility the highest intracellular concentration tested was 30 mM; for PfCRT-mediated [3H]CQ transport, trans-stimulation by injected solute, PfCRTDd2: background subtracted; for Trans-stimulation: total [3H]CQ transport, PfCRTDd2 oocytes: mean ± SEM, SEM; for Trans-stimulation data: PfCRT-mediated [3H]CQ transport: normalised to the oocyte type control = 100
T4 sequence (Q9N623 whole entry A220S/I356T/K76T/M74I/N326S/N75E/Q271E/R371I): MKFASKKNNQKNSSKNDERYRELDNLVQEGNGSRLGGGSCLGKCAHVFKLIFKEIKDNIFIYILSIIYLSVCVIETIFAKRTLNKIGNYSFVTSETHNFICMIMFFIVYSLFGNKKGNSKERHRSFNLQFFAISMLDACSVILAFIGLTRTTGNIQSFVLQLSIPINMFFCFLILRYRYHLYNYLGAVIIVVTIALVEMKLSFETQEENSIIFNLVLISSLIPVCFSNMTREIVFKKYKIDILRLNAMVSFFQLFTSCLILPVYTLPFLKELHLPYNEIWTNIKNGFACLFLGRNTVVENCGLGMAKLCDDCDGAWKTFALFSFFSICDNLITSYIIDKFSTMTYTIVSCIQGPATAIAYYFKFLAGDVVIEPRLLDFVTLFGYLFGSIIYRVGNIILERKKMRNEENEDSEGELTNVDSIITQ
Outline: as §1

[8] = molecular target: T3, PfCRT^Ecu1110; assay: [3H]CQ uptake into Xenopus oocytes, cis-inhibition by unlabelled solute; format: cell-based; settings: PfCRTEcu1110 oocytes, background [3H]CQ accumulation subtracted, normalised to oocyte type control
Outline: (§6)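 Washed oocytes (ten per treatment) were exposed to label in pH 5.5 ND96 for 1.5 h at 27.5 °C. Buffer was then removed, cells rinsed in ice-cold ND96, lysed in SDS and counted.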

[9] = molecular target: T4, PfCRT^Dd2; assay: as above; format: cell-based; settings: PfCRTDd2 oocytes, background [3H]CQ accumulation subtracted, normalised to oocyte type control
Outline: as §6

[10] = 2nd of 6 trans-stimulation columns, footnote b: due to solubility the highest intracellular concentration tested was 30 mM, normalised to the oocyte type control = 100
[11] = PfCRT3D7 oocytes, footnote b: highest intracellular concentration tested was 30 mM (solubility)
[12] = footnote b: highest intracellular concentration tested was 30 mM (solubility)
[13] = PfCRTEcu1110 oocytes, footnote b: highest intracellular concentration tested was 30 mM (solubility)
[14] = PfCRTDd2 oocytes, footnote b: highest intracellular concentration tested was 30 mM (solubility)
[15] = PfNT1 oocytes, footnote b: highest intracellular concentration tested was 30 mM (solubility)
[16] = non-expressing oocytes, footnote b: highest intracellular concentration tested was 30 mM (solubility)

Row | Molecule | PfCRT-mediated [3H]CQ transport, trans-stimulation by injected solute, PfCRT3D7 [1] | Total [3H]CQ transport, trans-stimulation by injected solute [1] | Trans-stimulation data: PfCRT-mediated [3H]CQ transport [1] | Trans-stimulation data: total [3H]CQ transport, normalised to the oocyte type control [1] | Total [3H]CQ transport, trans-stimulation by injected solute [2] | Trans-stimulation data: total [3H]CQ transport, normalised to the oocyte type control [2] | Total [3H]CQ transport, trans-stimulation by injected solute [3] | Trans-stimulation data: total [3H]CQ transport, normalised to the oocyte type control [3] | Cis-inhibition data: total [3H]CQ transport, normalised to the oocyte type control [4] | Total [3H]CQ transport, cis-inhibition by solute [4] | Cis-inhibition data: total [3H]CQ transport, normalised to the oocyte type control [5] | Total [3H]CQ transport, cis-inhibition by solute [5] | Trans-stimulation data: PfCRT-mediated [3H]CQ transport [1, 10] [b] | Trans-stimulation data: total [3H]CQ transport [1, 11] [b] | Trans-stimulation: total [3H]CQ transport, PfCRT3D7 oocytes [1, 12] | Trans-stimulation data: total [3H]CQ transport [6, 13] [b] | Trans-stimulation: total [3H]CQ transport, PfCRTEcu1110 oocytes [6, 12] | Trans-stimulation data: total [3H]CQ transport [7, 14] [b] | PfCRT-mediated [3H]CQ transport, trans-stimulation by injected solute, PfCRTDd2 [7] | Trans-stimulation data: total [3H]CQ transport [2, 15] [b] | also measured
1 | O=C(O)CCC(=O)O [Succinate] | 0.8 ± 0.04 and 0.6 ± 0.02 | 3.8 ± 0.1 and 3.6 ± 0.03 | 99 ± 3.9 and 96 ± 4.0 | 101 ± 2.7 and 98 ± 3.7 | 2.6 ± 0.04 and 3.3 ± 0.08 | 101 ± 3.7 and 98 ± 3.0 | 3.1 ± 0.03 and 2.2 ± 0.05 | 100 ± 3.7 and 99 ± 3.3 | 100 ± 9.7 and 100 ± 3.8 and 99 ± 3.7 | 4.2 ± 0.03 and 3.6 ± 0.06 and 3.9 ± 0.1 | 101 ± 4.7 and 101 ± 5.3 and 100 ± 5.3 | 2.4 ± 0.06 and 2.8 ± 0.03 and 2.2 ± 0.06 | – | – | – | – | – | – | – | – | –
2 | O=CO [Formate] | 0.8 ± 0.01 and 0.8 ± 0.03 | 3.8 ± 0.01 and 3.8 ± 0.03 | 99 ± 3.7 and 99 ± 3.8 | 101 ± 2.9 and 101 ± 2.8 | 3.1 ± 0.08 and 2.3 ± 0.06 | 101 ± 3.6 and 100 ± 24 | 2.5 ± 0.09 and 3.2 ± 0.08 | 101 ± 3.9 and 99 ± 3.5 | 101 ± 7.3 and 99 ± 3.8 and 100 ± 4.4 | 2.4 ± 0.06 and 3.5 ± 0.07 and 3.3 ± 0.07 | 100 ± 3.5 and 100 ± 1.8 | 2.8 ± 0.03 and 3.2 ± 0.08 and 2.5 ± 0.04 | – | – | – | – | – | – | – | – | –
3 | VHLTPEEKSAVT [VT-12] | – | – | – | – | – | – | – | – | – | – | – | – | 97 ± 2.9 | 99 ± 3.5 | 3.1 ± 0.06b % of PfCRTDd2 control | 101 ± 3.2 | 33 ± 1.6b % of PfCRTDd2 control | 100 ± 2.6 | 98 ± 2.2b % of PfCRTDd2 control | 100 ± 2.8 | Trans-stimulation data: PfCRT-mediated [3H]CQ transport [6]: 99 ± 2.9b; Trans-stimulation: total [3H]CQ transport, PfCRTDd2 oocytes [7, 12]: 100 ± 2.6b % of PfCRTDd2 control; Trans-stimulation data: PfCRT-mediated [3H]CQ transport [7]: 98 ± 2.2b; Trans-stimulation: total [3H]CQ transport, PfNT1 oocytes [2, 12]: 2.7 ± 0.06b % of PfCRTDd2 control; Trans-stimulation: total [3H]CQ transport, non-expressing oocytes [3, 12]: 2.2 ± 0.03b % of PfCRTDd2 control
4 | YFPHFDLS [YS-8] | – | – | – | – | – | – | – | – | – | – | – | – | – | 100 ± 3.5 | 3.1 ± 0.04b % of PfCRTDd2 control | 99 ± 3.8 | 32 ± 1.9b % of PfCRTDd2 control | 99 ± 2.8 | 97 ± 1.7b % of PfCRTDd2 control | 98 ± 3.5 | PfCRT-mediated [3H]CQ transport, trans-stimulation (% PfCRT3D7 control) ([1]; [test solute]i = 5 mM (intracellular), PfCRT3D7 oocytes, normalised to oocyte type control): 96 ± 2.8 % PfCRT3D7 control; PfCRT-mediated [3H]CQ transport, trans-stimulation (% PfCRT3D7 control) ([1]; cell marked b: highest intracellular concentration tested was 30 mM due to solubility, PfCRT3D7 oocytes): 98 ± 2.8b % PfCRT3D7 control; PfCRT-mediated [3H]CQ transport, trans-stimulation (% PfCRTEcu1110 control) ([6]; [test solute]i = 5 mM (intracellular), PfCRTEcu1110 oocytes, normalised to oocyte type control): 98 ± 3.1 % PfCRTEcu1110 control; PfCRT-mediated [3H]CQ transport, trans-stimulation (% PfCRTEcu1110 control) ([6]; cell marked b: highest intracellular concentration tested was 30 mM due to solubility, PfCRTEcu1110 oocytes): 97 ± 1.5b % PfCRTEcu1110 control; PfCRT-mediated [3H]CQ transport, trans-stimulation (% PfCRTDd2 control) ([7]; [test solute]i = 5 mM (intracellular), PfCRTDd2 oocytes, normalised to oocyte type control): 98 ± 1.1 % PfCRTDd2 control; PfCRT-mediated [3H]CQ transport, trans-stimulation (% PfCRTDd2 control) ([7]; cell marked b: highest intracellular concentration tested was 30 mM due to solubility, PfCRTDd2 oocytes): 97 ± 1.7b % PfCRTDd2 control; Trans-stimulation: total [3H]CQ transport, PfCRTDd2 oocytes [7, 12]: 99 ± 2.8b % of PfCRTDd2 control; Trans-stimulation: total [3H]CQ transport, PfNT1 oocytes [2, 12]: 3.3 ± 0.08b % of PfCRTDd2 control; Trans-stimulation: total [3H]CQ transport, non-expressing oocytes [3, 12]: 2.8 ± 0.05b % of PfCRTDd2 control; Trans-stimulation data: total [3H]CQ transport [3, 16]: 100 ± 2.8b; PfCRT-mediated [3H]CQ transport, cis-inhibition (% PfCRTEcu1110 control) ([8]; [test solute] = 0.5 mM): 43 ± 3.2 % PfCRTEcu1110 control; PfCRT-mediated [3H]CQ transport, cis-inhibition (% PfCRTEcu1110 control) ([8]; [test solute] = 1 mM): 33 ± 2.6 % PfCRTEcu1110 control; PfCRT-mediated [3H]CQ transport, cis-inhibition (% PfCRTEcu1110 control) ([8]; [test solute] = 2 mM): 25 ± 1.5 % PfCRTEcu1110 control; PfCRT-mediated [3H]CQ transport, cis-inhibition (% PfCRTDd2 control) ([9]; [test solute] = 0.5 mM): 38 ± 2.7 % PfCRTDd2 control; PfCRT-mediated [3H]CQ transport, cis-inhibition (% PfCRTDd2 control) ([9]; [test solute] = 1 mM): 28 ± 0.5 % PfCRTDd2 control; PfCRT-mediated [3H]CQ transport, cis-inhibition (% PfCRTDd2 control) ([9]; [test solute] = 2 mM): 17 ± 0.1 % PfCRTDd2 control
5 | FESFGDLSTPDAVMGNPKVK [FK-20, additional peptide, 20 residues] | – | – | – | – | – | – | – | – | – | – | – | – | 98 ± 1.7 | 101 ± 2.7 | – | 99 ± 2.9 | – | 101 ± 4.7 | 98 ± 4.3b % of PfCRTDd2 control | 100 ± 4.2 | Total [3H]CQ transport, trans-stimulation by injected solute [1, 11]: 3.1 ± 0.05b % of the PfCRTDd2 control; Total [3H]CQ transport, trans-stimulation by injected solute [6, 13]: 32 ± 1.7b % of the PfCRTDd2 control; Trans-stimulation data: PfCRT-mediated [3H]CQ transport [6]: 97 ± 2.0b; Total [3H]CQ transport, trans-stimulation by injected solute [7, 14]: 101 ± 4.7b % of the PfCRTDd2 control; Trans-stimulation data: PfCRT-mediated [3H]CQ transport [7]: 98 ± 4.3b; Total [3H]CQ transport, trans-stimulation by injected solute [2, 15]: 4.2 ± 0.03b % of the PfCRTDd2 control; Total [3H]CQ transport, trans-stimulation by injected solute [3, 16]: 2.7 ± 0.06b % of the PfCRTDd2 control; Trans-stimulation data: total [3H]CQ transport [3, 16]: 100 ± 4.8b
